# Entries after “also recorded” stand apart in the source; their conditions may differ. Square brackets hold non-standard residues; d marks the D form. Peptide text beside a SMILES is read from it. dPhe(4-Cl) = N[C@H](Cc1ccc(Cl)cc1)C(=O)O; d2Nal = N[C@H](Cc1ccc2ccccc2c1)C(=O)O; dCit = NC(=O)NCCC[C@@H](N)C(=O)O; d3Pal = N[C@H](Cc1cccnc1)C(=O)O
# Tests used:
# [1] = tested on: MA-10 mouse Leydig tumor cells; test: Progesterone production by MA-10 cells after 8-Br-cAMP (RIA); assay type: cell-based; conditions: 10 μM 19-Atriol with TVS167, 8-Br-cAMP 120 min
# Procedure: Cell culture, treatments, and steroid measurement. MA-10 mouse Leydig tumor cells were maintained in DMEM/Ham's nutrient mixture F12 (Gibco, Burlington, ON) supplemented with 5% fetal bovine serum, 2.5% hoarse serum, and 1% penicillin and streptomycin at 37° C. and 3.7% CO2. Cells were incubated in serum-free cell culture media supplemented with 1 mM 8-Bromo-cAMP (Enzo Biosciences, Farmingdale, N.Y.) or […] (50 ng/ml) hCG for 15, 30, 60, and 120 min or as indicated. Human NCL-H295R cells were maintained in DMEM/F12 media supplemented with 2.5% Ultroser G (Pall Biospera, Mississauga, ON), 1% penicillin/streptomycin (Invitrogen, Carlsbad, Calif.), and 1% ITS+ Premix (BD Biosciences, Franklin Lakes, N.J.) in a humidified chamber at 37° C. and 5% CO2.
# Experiments involving the TV peptides included 1×10^3 MA-10 or NCL-H295R cells, which were initially cultured for 24 hrs. Serum-free media were supplemented with 250 nM TV fusion peptides, and cells were incubated for 90 min after optimization. […]
# Progesterone or testosterone levels were measured with specific RIAs in triplicate using commercial anti-sera from rabbit and sheep, respectively (MP Biomedicals, Santa Ana, Calif.). Protein levels in MA-10 cell lysates were determined with the Bradford dye assay (Bio-Rad). LH and corticosterone levels were measured with rat-specific ELISA kits (CUSABIO, Wuhan, China).
# Sprague-Dawley rats = test: FGIN-1-27 bolus intratesticular injection, T levels after 2 hrs; assay type: in vivo, rat; conditions: for intratesticular T levels / plasma T levels: 8.5 μg bolus, 2 hrs
# Procedure: (§1) Animals studies. Animals were handled according to protocols approved by the McGill University Animal Care and Use Committees. 60- to 64-day-old male Sprague-Dawley rats were purchased from Charles River, Senneville, QC. Rats were provided standard diets and tap water ad libitum and were maintained in controlled conditions (24° C., 12-h light, 12-h dark schedule). Animals were euthanized, and the testes were either immediately used for organ culture or intratesticular fluid collection, or testes and adrenal glands were snap-frozen for sectioning. Bolus injections with water or indicated doses of TV peptides were performed after administering isofluorane anesthesia. Rats were injected with either water or the indicated dose of TV fusion peptide. When FGIN-1-27 (Sigma-Aldrich, St. Louis, Mo.) was used, 8.5 μg in 50 μl (390 μM) of the compound in 1% DMSO solution containing Tween-20™ was injected into one of the testes of 68-72 day old Sprague-Dawley rats. Animals were incubated in standard conditions for 2 hrs. Surgeries were performed on 60- to 64-day-old rats bolus injection of water or TV peptides. Alzet mini-osmotic pumps releasing 75 ng of filled with water or a TV peptide or water over a course of 24 hrs was surgically implanted in the abdomen. The pumps were connected to a polyethylene catheter tubing (Alzet) and directed to the injected testis. The pump released 75 ng TV peptide to the testis over a course of 24 hrs at the rate of 1 μl/hour. GnRH antagonist, Cetrorelix™ (Sigma Aldrich) was injected into 59-day-old rats intraperitoneally (i.p.) at 0.4 mg/animal/day for 0-4 days (Horvath et al. 2004). Animal dissection was performed after CO2 anesthesia. Cardiac puncture was used for blood collection, and further centrifugation yielded serum separation. Testes were dissected and either decapsulated for intratesticular fluid collection or snap-frozen for sectioning.
# To further assess the link between VDAC1 and TSPO function in vivo, the acute effect of TVS167 was compared to that of a well characterized high affinity TSPO drug ligand, N,N-dihexyl-2-(4-fluorophenyl)indole-3-acetamide (FGIN-1-27) (Perheentupa et al. 2009), in the absence of LH signaling. Sprague-Dawley rats of 68-72 days old were given an i.p. injected of either H2O or 0.4 mg Cetrorelix™ for 0-4 days. On day 4, a bolus intratesticular injection of 8.5 μg FGIN-1-27 or its solvent (control) was given to one testis per animal. To assess the acute effect of this TSPO drug ligand on steroidogenesis intratesticular and circulating T levels were measured after 2 hrs.
# [2] = tested on: adult Sprague-Dawley rats; test: Cetrorelix i.p. injection, suppression of T and LH; assay type: in vivo, rat
# Procedure: as §1, with “The pump released 75 ng TV peptide to the testis over a course of 24 hrs at the rate of 1 μl/hour. GnRH antagonist, Cetrorelix™ (Sigma Aldrich) was injected into 59-day-old rats intraperitoneally (i.p.) at 0.4 mg/animal/day for 0-4 days (Horvath et al. 2004). Animal dissection was performed after CO2 anesthesia. Cardiac puncture was used for blood collection, and further centrifugation yielded serum separation. Testes were dissected and either decapsulated for intratesticular fluid collection or snap-frozen for sectioning.” left out
smiles,measurement,setting,value
C[C@]12CC[C@H]3[C@@H](CC=C4C[C@@H](O)CC[C@@]43CO)[C@@H]1CC[C@@H]2O [19-Atriol],effect on TVS167-stimulated steroid formation,[1],stimulatory effect of TVS167 on steroid formation was blocked
"CCCCCCN(CCCCCC)C(=O)Cc1c(-c2ccc(F)cc2)[nH]c2ccccc12 [FGIN-1-27, N,N-dihexyl-2-(4-fluorophenyl)indole-3-acetamide]",intratesticular T levels,Sprague-Dawley rats; Cetrorelix-treated rats,significant increase
same,plasma T levels,Sprague-Dawley rats; Cetrorelix-treated rats,increased
same,intratesticular T levels,Sprague-Dawley rats; control (H2O i.p.) rats,significant increase
same,plasma T levels,Sprague-Dawley rats; control (H2O i.p.) rats,increased only in the Cetrorelix-treated animals
same,acute T formation in vivo compared with TVS167,Sprague-Dawley rats; control and Cetrorelix-treated rats,to a lesser extent that TVS167
CC(=O)N[C@H](Cc1ccc2ccccc2c1)C(=O)N[C@H](Cc1ccc(Cl)cc1)C(=O)N[C@H](Cc1cccnc1)C(=O)N[C@@H](CO)C(=O)N[C@@H](Cc1ccc(O)cc1)C(=O)N[C@H](CCCNC(N)=O)C(=O)N[C@@H](CC(C)C)C(=O)N[C@@H](CCCNC(=N)N)C(=O)N1CCC[C@H]1C(=O)N[C@H](C)C(N)=O [Cetrorelix] (Ac-[d2Nal][dPhe(4-Cl)][d3Pal]SY[dCit]LRP[dA]-NH2),T levels in testes and serum,[2]; 0.4 mg/day i.p. for four days,completely suppressed; also recorded: blocked
same,LH release,[2]; adult rats,blocked LH release

# — US10301357B2, “Therapeutics for the induction of endogenous steroidogenesis and methods associated with their identification” (THE ROYAL INSTITUTION FOR THE ADVANCEMENT OF …, priority 2013, dated 2019)
